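Protocol summary: plate cells (96-well), add compound at 5 concentrations, incubate 48 h, interpolate endpoints linearly. TGI denotes the concentration required for complete inhibition of growth.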

In the first experiment the test system is SK-MEL-28 melanoma. Briefly: inhibition of tumour cell growth, NCI panel, 48 h.
Compound `O=C1[C@H]2ON(c3ccccc3)C(c3ccccc3Cl)[C@H]2C(=O)N1c1ccc(Cc2ccc(N3C(=O)[C@@H]4ON(c5ccccc5)C(c5ccccc5Cl)[C@@H]4C3=O)cc2)cc1` (stereo partly drawn) gave a TGI of more than 100 µM.
With `COc1cc(Cn2c3ccccc3c3cc(C)c4c(c32)C=CC(C)(CCC=C(C)C)O4)cc2c1[nH]c1ccccc12` (stereo not drawn), the TGI is more than 100 µM.

The test system of another experiment is SK-MEL-5 melanoma. Briefly: inhibition of tumour cell growth, NCI panel, 48 h.
For the compound `Cc1ccc(C(=O)c2nnc(C(=O)c3ccc(C)cc3)nn2)cc1`, the TGI is more than 100 µM.
`COc1cc(C2C(C(=O)O)=C(CO)Oc3cc4c(cc32)OCO4)cc(OC)c1O` (stereo not drawn) gave a TGI of more than 100 µM.
Same read-out and setting: next, `O=C1[C@H]2ON(c3ccccc3)C(c3ccccc3Cl)[C@H]2C(=O)N1c1ccc(Cc2ccc(N3C(=O)[C@@H]4ON(c5ccccc5)C(c5ccccc5Cl)[C@@H]4C3=O)cc2)cc1` (stereo partly drawn): more than 100 µM.
With `COc1cc(Cn2c3ccccc3c3cc(C)c4c(c32)C=CC(C)(CCC=C(C)C)O4)cc2c1[nH]c1ccccc12` (stereo not drawn), the TGI is more than 100 µM.

The next experiment concerns SK-OV-3 ovarian. Description: inhibition of tumour cell growth, NCI panel, 48 h.
With `Cc1ccc(C(=O)c2nnc(C(=O)c3ccc(C)cc3)nn2)cc1`, the TGI amounted to 36.8 µM.
In turn, `COc1cc(C2C(C(=O)O)=C(CO)Oc3cc4c(cc32)OCO4)cc(OC)c1O` (stereo not drawn) registered a TGI of more than 100 µM.
On to `O=C1[C@H]2ON(c3ccccc3)C(c3ccccc3Cl)[C@H]2C(=O)N1c1ccc(Cc2ccc(N3C(=O)[C@@H]4ON(c5ccccc5)C(c5ccccc5Cl)[C@@H]4C3=O)cc2)cc1` (stereo partly drawn), for which the TGI is more than 100 µM.
As for `COc1cc(Cn2c3ccccc3c3cc(C)c4c(c32)C=CC(C)(CCC=C(C)C)O4)cc2c1[nH]c1ccccc12` (stereo not drawn), the TGI was more than 100 µM.

The test system of the next experiment is SN12C renal. Description: inhibition of tumour cell growth, NCI panel, 48 h.
Compound `Cc1ccc(C(=O)c2nnc(C(=O)c3ccc(C)cc3)nn2)cc1` gave a TGI of more than 100 µM.
With `COc1cc(C2C(C(=O)O)=C(CO)Oc3cc4c(cc32)OCO4)cc(OC)c1O` (stereo not drawn), the TGI is more than 100 µM.
Regarding `O=C1[C@H]2ON(c3ccccc3)C(c3ccccc3Cl)[C@H]2C(=O)N1c1ccc(Cc2ccc(N3C(=O)[C@@H]4ON(c5ccccc5)C(c5ccccc5Cl)[C@@H]4C3=O)cc2)cc1` (stereo partly drawn), the TGI was more than 100 µM.
The compound `COc1cc(Cn2c3ccccc3c3cc(C)c4c(c32)C=CC(C)(CCC=C(C)C)O4)cc2c1[nH]c1ccccc12` (stereo not drawn) returned a TGI of more than 100 µM.

Another experiment has as its system SNB-19 CNS. Briefly: inhibition of tumour cell growth, NCI panel, 48 h.
As to `Cc1ccc(C(=O)c2nnc(C(=O)c3ccc(C)cc3)nn2)cc1`, the TGI is more than 100 µM.
`COc1cc(C2C(C(=O)O)=C(CO)Oc3cc4c(cc32)OCO4)cc(OC)c1O` (stereo not drawn): the TGI is more than 100 µM.
In turn, `O=C1[C@H]2ON(c3ccccc3)C(c3ccccc3Cl)[C@H]2C(=O)N1c1ccc(Cc2ccc(N3C(=O)[C@@H]4ON(c5ccccc5)C(c5ccccc5Cl)[C@@H]4C3=O)cc2)cc1` (stereo partly drawn) returned a TGI of more than 100 µM.
As to `COc1cc(Cn2c3ccccc3c3cc(C)c4c(c32)C=CC(C)(CCC=C(C)C)O4)cc2c1[nH]c1ccccc12` (stereo not drawn), the TGI is more than 100 µM.

In a further experiment the test system is SNB-75 CNS. Description: inhibition of tumour cell growth, NCI panel, 48 h.
The compound `Cc1ccc(C(=O)c2nnc(C(=O)c3ccc(C)cc3)nn2)cc1` came in with a TGI of more than 100 µM.
In turn, `COc1cc(C2C(C(=O)O)=C(CO)Oc3cc4c(cc32)OCO4)cc(OC)c1O` (stereo not drawn) came in with a TGI of more than 100 µM.
Still for that read-out and setting: with `O=C1[C@H]2ON(c3ccccc3)C(c3ccccc3Cl)[C@H]2C(=O)N1c1ccc(Cc2ccc(N3C(=O)[C@@H]4ON(c5ccccc5)C(c5ccccc5Cl)[C@@H]4C3=O)cc2)cc1` (stereo partly drawn) the figure was more than 100 µM; with `COc1cc(Cn2c3ccccc3c3cc(C)c4c(c32)C=CC(C)(CCC=C(C)C)O4)cc2c1[nH]c1ccccc12` (stereo not drawn), more than 100 µM.

The next experiment deals with SNB-78 CNS. Description: inhibition of tumour cell growth, NCI panel, 48 h.
The compound `Cc1ccc(C(=O)c2nnc(C(=O)c3ccc(C)cc3)nn2)cc1` came in with a TGI of more than 100 µM.
Consider `COc1cc(C2C(C(=O)O)=C(CO)Oc3cc4c(cc32)OCO4)cc(OC)c1O` (stereo not drawn), for which the TGI was more than 100 µM.
As for `O=C1[C@H]2ON(c3ccccc3)C(c3ccccc3Cl)[C@H]2C(=O)N1c1ccc(Cc2ccc(N3C(=O)[C@@H]4ON(c5ccccc5)C(c5ccccc5Cl)[C@@H]4C3=O)cc2)cc1` (stereo partly drawn), the TGI was more than 100 µM.
Compound `COc1cc(Cn2c3ccccc3c3cc(C)c4c(c32)C=CC(C)(CCC=C(C)C)O4)cc2c1[nH]c1ccccc12` (stereo not drawn) returned a TGI of more than 100 µM.

A further experiment has as its system SR leukemia. Description: inhibition of tumour cell growth, NCI panel, 48 h.
Consider `Cc1ccc(C(=O)c2nnc(C(=O)c3ccc(C)cc3)nn2)cc1`, for which the TGI was found to be 37.6 µM.
With `O=C1[C@H]2ON(c3ccccc3)C(c3ccccc3Cl)[C@H]2C(=O)N1c1ccc(Cc2ccc(N3C(=O)[C@@H]4ON(c5ccccc5)C(c5ccccc5Cl)[C@@H]4C3=O)cc2)cc1` (stereo partly drawn), the TGI is more than 100 µM.
Turning to `COc1cc(Cn2c3ccccc3c3cc(C)c4c(c32)C=CC(C)(CCC=C(C)C)O4)cc2c1[nH]c1ccccc12` (stereo not drawn), the TGI was more than 100 µM.

The test system of the next experiment is SW-620 colon. Briefly: inhibition of tumour cell growth, NCI panel, 48 h.
On to `Cc1ccc(C(=O)c2nnc(C(=O)c3ccc(C)cc3)nn2)cc1`, for which the TGI was 44.1 µM.
The same measure, in the same setting: with `COc1cc(C2C(C(=O)O)=C(CO)Oc3cc4c(cc32)OCO4)cc(OC)c1O` (stereo not drawn) the figure was more than 100 µM.
Still for that read-out and setting: next, `O=C1[C@H]2ON(c3ccccc3)C(c3ccccc3Cl)[C@H]2C(=O)N1c1ccc(Cc2ccc(N3C(=O)[C@@H]4ON(c5ccccc5)C(c5ccccc5Cl)[C@@H]4C3=O)cc2)cc1` (stereo partly drawn): more than 100 µM; `COc1cc(Cn2c3ccccc3c3cc(C)c4c(c32)C=CC(C)(CCC=C(C)C)O4)cc2c1[nH]c1ccccc12` (stereo not drawn): more than 100 µM.

The test system of a further experiment is TK-10 renal. Briefly: inhibition of tumour cell growth, NCI panel, 48 h.
On to `Cc1ccc(C(=O)c2nnc(C(=O)c3ccc(C)cc3)nn2)cc1`, for which the TGI was more than 100 µM.
The compound `COc1cc(C2C(C(=O)O)=C(CO)Oc3cc4c(cc32)OCO4)cc(OC)c1O` (stereo not drawn) gave a TGI of more than 100 µM.
`O=C1[C@H]2ON(c3ccccc3)C(c3ccccc3Cl)[C@H]2C(=O)N1c1ccc(Cc2ccc(N3C(=O)[C@@H]4ON(c5ccccc5)C(c5ccccc5Cl)[C@@H]4C3=O)cc2)cc1` (stereo partly drawn) registered a TGI of more than 100 µM.
As to `COc1cc(Cn2c3ccccc3c3cc(C)c4c(c32)C=CC(C)(CCC=C(C)C)O4)cc2c1[nH]c1ccccc12` (stereo not drawn), the TGI was more than 100 µM.

The test system of the next experiment is U251 CNS. Briefly: inhibition of tumour cell growth, NCI panel, 48 h.
Take `Cc1ccc(C(=O)c2nnc(C(=O)c3ccc(C)cc3)nn2)cc1`: the TGI is more than 100 µM.
Regarding `COc1cc(C2C(C(=O)O)=C(CO)Oc3cc4c(cc32)OCO4)cc(OC)c1O` (stereo not drawn), the TGI was more than 100 µM.
Turning to `O=C1[C@H]2ON(c3ccccc3)C(c3ccccc3Cl)[C@H]2C(=O)N1c1ccc(Cc2ccc(N3C(=O)[C@@H]4ON(c5ccccc5)C(c5ccccc5Cl)[C@@H]4C3=O)cc2)cc1` (stereo partly drawn), the TGI was more than 100 µM.
On the same count and under the same terms, next, `COc1cc(Cn2c3ccccc3c3cc(C)c4c(c32)C=CC(C)(CCC=C(C)C)O4)cc2c1[nH]c1ccccc12` (stereo not drawn): more than 100 µM.

The next experiment relates to UACC-257 melanoma. Briefly: inhibition of tumour cell growth, NCI panel, 48 h.
Regarding `Cc1ccc(C(=O)c2nnc(C(=O)c3ccc(C)cc3)nn2)cc1`, the TGI is more than 100 µM.
Take `COc1cc(C2C(C(=O)O)=C(CO)Oc3cc4c(cc32)OCO4)cc(OC)c1O` (stereo not drawn): the TGI is more than 100 µM.
In the case of `O=C1[C@H]2ON(c3ccccc3)C(c3ccccc3Cl)[C@H]2C(=O)N1c1ccc(Cc2ccc(N3C(=O)[C@@H]4ON(c5ccccc5)C(c5ccccc5Cl)[C@@H]4C3=O)cc2)cc1` (stereo partly drawn), the TGI is more than 100 µM.
Same read-out and setting: next, `COc1cc(Cn2c3ccccc3c3cc(C)c4c(c32)C=CC(C)(CCC=C(C)C)O4)cc2c1[nH]c1ccccc12` (stereo not drawn): more than 100 µM.

The next experiment concerns UACC-62 melanoma. Briefly: inhibition of tumour cell growth, NCI panel, 48 h.
As for `Cc1ccc(C(=O)c2nnc(C(=O)c3ccc(C)cc3)nn2)cc1`, the TGI is more than 100 µM.
`COc1cc(C2C(C(=O)O)=C(CO)Oc3cc4c(cc32)OCO4)cc(OC)c1O` (stereo not drawn) had a TGI of more than 100 µM.
`O=C1[C@H]2ON(c3ccccc3)C(c3ccccc3Cl)[C@H]2C(=O)N1c1ccc(Cc2ccc(N3C(=O)[C@@H]4ON(c5ccccc5)C(c5ccccc5Cl)[C@@H]4C3=O)cc2)cc1` (stereo partly drawn) showed a TGI of more than 100 µM.
On to `COc1cc(Cn2c3ccccc3c3cc(C)c4c(c32)C=CC(C)(CCC=C(C)C)O4)cc2c1[nH]c1ccccc12` (stereo not drawn), for which the TGI is more than 100 µM.

Another experiment deals with UO-31 renal. Description: inhibition of tumour cell growth, NCI panel, 48 h.
As for `Cc1ccc(C(=O)c2nnc(C(=O)c3ccc(C)cc3)nn2)cc1`, the TGI was more than 100 µM.
On to `COc1cc(C2C(C(=O)O)=C(CO)Oc3cc4c(cc32)OCO4)cc(OC)c1O` (stereo not drawn), for which the TGI was more than 100 µM.
As for `O=C1[C@H]2ON(c3ccccc3)C(c3ccccc3Cl)[C@H]2C(=O)N1c1ccc(Cc2ccc(N3C(=O)[C@@H]4ON(c5ccccc5)C(c5ccccc5Cl)[C@@H]4C3=O)cc2)cc1` (stereo partly drawn), the TGI is more than 100 µM.
Consider `COc1cc(Cn2c3ccccc3c3cc(C)c4c(c32)C=CC(C)(CCC=C(C)C)O4)cc2c1[nH]c1ccccc12` (stereo not drawn), for which the TGI is more than 100 µM.

The values above are taken from PubChem BioAssay (NCI).
